Assay results reported in publication PMC3351444, “Molecular Evolution of a Peptide GPCR Ligand Driven by Artificial Neural Networks” (PLoS ONE, 2012).
Where two headings read alike, the source gives them in different places. Square brackets hold non-standard residues; d marks the D form. Ends that are not written are not given here. Peptide text beside a SMILES is read from it.

What was measured:
human CMKLR1 = molecular target: T1, human CMKLR1 (Homo sapiens, UniProt Q99788); assay: Ca2+ mobilization (CellLux imaging) agonist assay in HEK293A cells expressing CMKLR1 and Gα15; assay type: cell-based
T1 construct: host or cells: HEK293A (Invitrogen), stably expressing human Gα15
T1 sequence (Q99788 1-373): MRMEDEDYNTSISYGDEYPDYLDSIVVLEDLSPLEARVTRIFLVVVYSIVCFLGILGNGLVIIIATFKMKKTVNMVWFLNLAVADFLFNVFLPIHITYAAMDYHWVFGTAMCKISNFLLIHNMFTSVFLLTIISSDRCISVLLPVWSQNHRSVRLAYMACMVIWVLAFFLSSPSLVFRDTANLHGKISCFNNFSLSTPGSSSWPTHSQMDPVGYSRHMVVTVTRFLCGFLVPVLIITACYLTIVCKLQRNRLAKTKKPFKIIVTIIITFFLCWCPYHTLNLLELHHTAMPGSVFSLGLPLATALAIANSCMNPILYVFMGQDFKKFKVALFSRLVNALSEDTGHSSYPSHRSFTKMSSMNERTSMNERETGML
Procedure, shortened: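 HEK293A cells co-expressing CMKLR1 and Gα15 were loaded with FLUO4-AM, and peptides were added robotically in C1 buffer (HEPES pH 7.4, 2 mM CaCl2) with 0.1% BSA. Fluorescence changes were read in duplicate wells, buffer-subtracted and normalized to background. EC50 came from amplitude–concentration plots.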

[1] = In vitro peptide stability in human serum (RP-HPLC); settings: for half-life at 50 µg/mL: human, human serum, 25% (v/v) in RPMI; for t1/2: metabolic stability in human serum
Experimental: The initial time is recorded, and at known time intervals 50 µL of the reaction solution is removed and added to 100 µL of 6% aqueous trichloroacetic acid (TCA) for precipitation of serum proteins. […] The reaction supernatant is then analyzed using RP-HPLC (Agilent 1200 LC System) on a ZORBAX Eclipse XDB-C18, 4.6×150 mm, 5 µm column (Agilent). […] Fluorescence is detected at an excitation wavelength of 280 nm and emission wavelength of 340 nm. Kinetic analysis was carried out by least-squares analysis of the logarithm of the integration peak area versus time.

[2] = Ca2+ mobilization, CMKLR1, decimal comma
[3] = Ca2+ mobilization, CMKLR1, decimal comma, NR where no EC50 is given, read-out: EC50
[4] = intracellular calcium mobilization, HEK293 cells expressing CMKLR1, mean of three independent experiments ± SD, read-out: activity: EC50 ±SD

Molecule	max response (human CMKLR1; [2])	EC50 (human CMKLR1; [3])	half-life at 50 µg/mL [1]	EC50 (human CMKLR1; [4])	t1/2 [1]
CC(C)C[C@H](NC(=O)[C@H](Cc1ccccc1)NC(=O)CNC(=O)[C@@H]1CCCN1C(=O)[C@H](CC(C)C)NC(=O)[C@@H](N)Cc1ccccc1)C(=O)N[C@@H](C)C(=O)N[C@@H](CC(C)C)C(=O)N1CCC[C@@H]1C(=O)O [compound 72] (H-FLPGFLAL[dP]-OH; N-terminus assumed)	0,64 DF/F0	2610 nM	3.63 h		
C[C@H](NC(=O)[C@H](Cc1ccccc1)NC(=O)[C@H](C)NC(=O)[C@H](Cc1ccc(O)cc1)NC(=O)[C@H](C)NC(=O)[C@H](Cc1ccccc1)NC(=O)[C@@H](CO)NC(=O)[C@H](Cc1ccccc1)NC(=O)[C@@H](N)CCC(N)=O)C(=O)O [compound 102] (H-QF[dS]FAYAFA-OH; N-terminus assumed)	1,78 DF/F0	143 nM	1.38 h		
CC(C)[C@H](NC(=O)[C@@H](N)Cc1ccc(O)cc1)C(=O)N1CCC[C@H]1C(=O)NCC(=O)N[C@@H](CCC(N)=O)C(=O)N[C@@H](Cc1ccccc1)C(=O)N[C@@H](C)C(=O)N[C@@H](Cc1ccccc1)C(=O)N[C@H](Cc1ccccc1)C(=O)O [compound 35] (H-YVPGQFAF[dF]-OH; N-terminus assumed)	0,96 DF/F0				0.7 h
CC(C)C[C@H](NC(=O)[C@H](N)Cc1ccc(O)cc1)C(=O)N1CCC[C@H]1C(=O)NCC(=O)N[C@@H](CCC(N)=O)C(=O)N[C@@H](Cc1ccc(O)cc1)C(=O)N[C@@H](C)C(=O)N[C@@H](Cc1ccc(O)cc1)C(=O)N[C@@H](CO)C(=O)O [compound 101] (H-[dY]LPGQYAYS-OH; N-terminus assumed)	1,56 DF/F0	140 nM	1.35 h		
PLPGQQAFF-OH [compound 79]	0,6 DF/F0		1.4 h		
CC(C)[C@H](NC(=O)[C@@H](N)Cc1ccc(O)cc1)C(=O)N1CCC[C@H]1C(=O)NCC(=O)N[C@@H](CCC(N)=O)C(=O)N[C@@H](Cc1ccccc1)C(=O)N[C@@H](C)C(=O)N[C@@H](Cc1ccccc1)C(=O)N[C@H](CO)C(=O)O [compound 90] (H-YVPGQFAF[dS]-OH; N-terminus assumed)	1,81 DF/F0	50 nM	0.383 h		
CC(C)C[C@H](NC(=O)[C@@H](N)Cc1ccc(O)cc1)C(=O)N1CCC[C@H]1C(=O)NCC(=O)N[C@@H](CCC(N)=O)C(=O)N[C@@H](Cc1ccc(O)cc1)C(=O)N[C@@H](C)C(=O)N[C@@H](Cc1ccc(O)cc1)C(=O)N[C@H](CO)C(=O)O [compound 87] (H-YLPGQYAY[dS]-OH; N-terminus assumed)	1,62 DF/F0	27.5 nM	0.817 h		

More lines, now with the values ahead:

max response (human CMKLR1; [2])	EC50 (human CMKLR1; [3])	half-life at 50 µg/mL [1]	EC50 (human CMKLR1; [4])	t1/2 [1]	Molecule
1,49 DF/F0	171 nM	37.7 h			C[C@@H](NC(=O)[C@H](Cc1ccc(O)cc1)NC(=O)[C@H](CCC(N)=O)NC(=O)[C@H](N)Cc1ccccc1)C(=O)N[C@@H](CCC(N)=O)C(=O)N[C@@H](Cc1ccc(O)cc1)C(=O)N[C@H](Cc1c[nH]c2ccccc12)C(=O)N[C@@H](Cc1ccccc1)C(=O)N[C@H](CO)C(=O)O [compound 146] (H-[dF]QY[dA]QY[dW]F[dS]-OH; N-terminus assumed)
1,2 DF/F0	2490 nM	0.4 h			C[C@H](NC(=O)[C@H](Cc1ccccc1)NC(=O)[C@H](C)NC(=O)[C@H](Cc1ccccc1)NC(=O)[C@@H](N)CCC(N)=O)C(=O)N[C@@H](Cc1ccccc1)C(=O)N[C@@H](C)C(=O)N[C@@H](Cc1ccccc1)C(=O)N[C@H](CO)C(=O)O [compound 115] (H-QFAFAFAF[dS]-OH; N-terminus assumed)
		23.5 ± 1.42 h	2.9 ± 1.34 nM		CC(C)C[C@H](NC(=O)[C@H](N)Cc1ccc(O)cc1)C(=O)N1CCC[C@H]1C(=O)N[C@H](CO)C(=O)N[C@@H](CCC(N)=O)C(=O)N[C@@H](Cc1ccc(O)cc1)C(=O)N[C@@H](C)C(=O)N[C@@H](Cc1ccccc1)C(=O)N[C@H](CO)C(=O)O [yLPsQYAFs] (H-[dY]LP[dS]QYAF[dS]-OH; N-terminus assumed)
1,45 DF/F0	38.7 nM	8 h			CC(C)C[C@H](N)C(=O)N[C@H](Cc1c[nH]c2ccccc12)C(=O)NCC(=O)NCC(=O)N1CCC[C@H]1C(=O)N[C@@H](Cc1ccc(O)cc1)C(=O)N[C@H](Cc1c[nH]c2ccccc12)C(=O)N[C@@H](Cc1ccc(O)cc1)C(=O)N[C@H](CO)C(=O)O [compound 128] (H-L[dW]GGPY[dW]Y[dS]-OH; N-terminus assumed)
1,47 DF/F0	298 nM	1.52 h			CC(C)C[C@H](NC(=O)[C@@H](N)Cc1ccc(O)cc1)C(=O)N1CCC[C@H]1C(=O)N[C@H](CC(C)C)C(=O)NCC(=O)N[C@@H](Cc1ccc(O)cc1)C(=O)N[C@@H](C)C(=O)N1CCC[C@@H]1C(=O)N[C@H](Cc1ccccc1)C(=O)O [compound 151] (H-YLP[dL]GYA[dP][dF]-OH; N-terminus assumed)
1,6 DF/F0				23.47 h	CC(C)C[C@H](NC(=O)[C@H](N)Cc1ccc(O)cc1)C(=O)N1CCC[C@H]1C(=O)N[C@H](CO)C(=O)N[C@@H](CCC(N)=O)C(=O)N[C@@H](Cc1ccc(O)cc1)C(=O)N[C@@H](C)C(=O)N[C@@H](Cc1ccccc1)C(=O)N[C@H](CO)C(=O)O [compound 121] (H-[dY]LP[dS]QYAF[dS]-OH; N-terminus assumed)
		0.7 ± 0.317 h	4.17 ± 2.31 nM		CC(C)[C@H](NC(=O)[C@@H](N)Cc1ccc(O)cc1)C(=O)N1CCC[C@H]1C(=O)NCC(=O)N[C@@H](CCC(N)=O)C(=O)N[C@@H](Cc1ccccc1)C(=O)N[C@@H](C)C(=O)N[C@@H](Cc1ccccc1)C(=O)N[C@H](Cc1ccccc1)C(=O)O (H-YVPGQFAF[dF]-OH; N-terminus assumed)
1,5 DF/F0	1940 nM	1.53 h			CC(C)C[C@H](NC(=O)[C@@H]1CCCN1C(=O)[C@@H](NC(=O)[C@H](Cc1ccc(O)cc1)NC(=O)[C@@H]1CCCN1)C(C)C)C(=O)N[C@H](CC(=O)O)C(=O)N[C@@H](Cc1ccc(O)cc1)C(=O)N[C@@H](C)C(=O)N[C@@H](Cc1ccccc1)C(=O)O [compound 111] (H-PYVPL[dD]YAF-OH; N-terminus assumed)
